Data reported in patent publication US20210322785A1, “COMPOSITIONS AND METHODS FOR TREATING WOUNDS” (C.P. MEDICAL CORPORATION, priority 2018, published 2021).

How the values were obtained:
[1] = Drug elution from polymer into PBS at 37° C.; format: physicochemical; conditions: within the first three days; polymer prepared with Nolvasan, 2% chlorhexidine dose (50 mg); PBS 37° C.
Method: A Thermo Scientific GENESYS 10S UV-Vis spectrophotometer was used to quantify the release of various drugs from several polymers. First, the reference drug or drug solution was dissolved in an appropriate solvent. Typically, phosphate buffered saline (PBS), ethanol or dimethylsulfoxide (DMSO) were used as the solvent. Next, the optimal absorption peak for identifying and quantifying the drug was determined by performing a scan of the drug solution between 200 and 1000 nm. With the absorption peak selected, a reference curve was established by measuring the peak absorbance for various concentrations of the drug. […]
Elution samples were collected daily by decanting the PBS solution from the polymer. The volume of sample collected was recorded. […] The elution sample was analyzed by first diluting the sample in the appropriate solvent using analytical pipettes such that the measured absorbance was in the range determined by the reference curve. The dilution factor was recorded. The drug concentration was calculated from the measured absorbance via the reference curve and the dilution factor. The drug amount was calculated by multiplying the drug concentration with the sample volume. The percent elution for that day was calculated by dividing the drug amount by the total amount of drug administered. […]

[2] = Hydrogel surface spread test; format: physicochemical; parameters: key: 1: no spreading, tight drops that stay in place; 2: mild spreading, drops drip slowly down; 3: severe spreading, drops completely wet surface; conditions: drop from 22 gauge needle on 97.5% water hydrogel surface, incline about 30°
Method: To model the performance of the polymer solutions on a hydrophilic surface the extent of spreading and dripping of droplets on a high water content biocompatible hydrogel polymer matrix surface at an incline of about 30° was recorded. […] The solution was stirred with a spatula for 10 to 20 seconds and allowed to gel, which typically took 5 to 10 minutes. The water content of the resulting polymer was 97.5%.
The test was performed by first preparing the polymer solution in the usual fashion. After thorough mixing, the polymer solution was dispensed dropwise through a 22 gauge needle onto the biocompatible biocompatible hydrogel polymer matrix surface. The results are shown in Table 9B and were divided into three general categories: 1) no spreading, tight drops that stay in place; 2) mild spreading, drops drip slowly down; 3) severe spreading, drops completely wet surface. Water is in category 3.

Compound | chlorhexidine released from polymer [1] | hydrogel surface spread test category [2]
[H]/N=C(\N/C(=N/[H])NCCCCCCNC(=N)NC(=N)Nc1ccc(Cl)cc1)Nc1ccc(Cl)cc1 [chlorhexidine] | Almost half | –
Water | – | 3
